Experimental data published in US20040127435A1, “Uses for inhibitors of inosine monophosphate dehydrogenase” (REGENTS OF THE UNIVERSITY OF CALIFORNIA, priority 2002, published 2004).
Entries after “also recorded” stand apart in the source; their conditions may differ. Like-named read-outs stand apart in the source and are kept apart here. Blank lines part the entries; values can stand above or below the molecule they belong to.

How the values were obtained:
[1] = system: MTAP-deleted lung cancer cells (A549); assay: Cell proliferation of MTAP-deleted A549 cells by MTT assay, mizoribine base pre-treatment then L-alanosine; format: cell-based; details: Homo sapiens
Procedure: MTAP-deleted lung cancer cells (A549) were pre-treated for 24 hours with control vehicle (square), or the indicated concentrations of mizoribine-base (10 μM, 25 μM and 50 μM). After 24 hours in culture L-alanosine was added at decreasing concentrations (½ dilutions) starting at 40 μM. Cell were then incubated for an additional 48 hours. Cell proliferation was tested by the MTT assay. As indicated by FIG. 4, the IC50 and IC90 (amount of drug needed to block proliferation by 50% or 90%) of L-alanosine declines in the presence of mizoribine base.

CLL cells [2] = assay: CLL cell viability by MTT dye assay; format: cell-based; details: Homo sapiens, 24 h, read-out: cell viability
Procedure: Indanocine is commercially available from Calbiochem (Cat. No. 402080). Leoni L. M., et al., J Natl Cancer Inst. 92:217-224 (2000). Hua X. H., et al., Cancer Res. 61:7248-7254 (2001). CLL cells were isolated and cultured as described above. CLL cells at a density of 1×10^6 ml were incubated for 24 hours in RPMI 1640 medium supplemented with 10% fetal bovine serum in the presence of 1 μM indanocine (abbreviated 178) and either 0, 1, or 10 μM mizoribine. Cell viability was assessed by the MTT [3-(4,5-dimethylthiazol-2-yl)-2,5-diphenyltetrazolium bromide) dye assay.

[3] = system: MTAP-deleted chronic myelogenous leukemia cells (K562); assay: Cell proliferation of MTAP-deleted K562 cells by MTT dye assay; format: cell-based; details: read-out: IC50 (amount of drug needed to block proliferation by 50%)
Procedure: MTAP-deleted chronic myelogenous leukemia cells (K562) were pre-treated for the indicated times (24, 48, 72 hours) with concentrations of mizoribine (squares) or mizoribine base (triangles) from 200 μM to 0.5 μM. At the end of the incubation time cell proliferation was tested by the MTT dye assay. As indicated by FIG. 3, the IC50 (amount of drug needed to block proliferation by 50%) of mizoribine or its base progressively declines as the time of exposure to drug increases. After 48 hours of incubation with mizoribine or mizoribine base, the IC50 for the drug is approximately 100 micromolar. After 72 hours of incubation with mizoribine or mizoribine base, the IC50 for the drug is approximately 10 micromolar.

[4] = in vivo; cited from earlier work
activated PBL = assay: α-tubulin polymerization assay in PBL activated with anti-CD3 and anti-CD28 antibodies; format: cell-based, human; details: PBL activated 24 hrs with anti-CD3 and anti-CD28, paclitaxel for one hour
Procedure: (§1) Peripheral blood from CLL patients or normal donors was layered on top of Ficoll-Paque Plus (Pharmacia, NJ) and centrifuged at 1200×g for twenty minutes. The enriched peripheral blood mononuclear cells (PBL) were washed several times with Ca++, Mg++-free HBSS.
(§2) All primary cells were cultured in RPMI 1640 medium with 20% fetal bovine serum (regular medium) at a density of 2-5×10^6 cell/ml. In some cases, the PBL were stimulated for 24 hours with 1 μg/ml anti-CD3 and anti-CD28 antibodies (Alexis, San Diego, Calif.) prior to immunoblot analysis.
(§3) α-tubulin Polymerization Assay. For each data point, 2×10^6 of cells were incubated in 2 ml of regular medium containing drugs for various periods of time. The cells were then washed twice at room temperature, and resuspended in 50 μl of α-tubulin extraction buffer (1 mM MgC2, 2 m MEGTA, 0.5% NP-40, 20 mM Tris-HCl, pH=6.8) supplemented with 2 mM phenylmethysulfonyl fluoride, and a protease inhibitor cocktail (Sigma). After a brief but vigorous vortex, the lysates were incubated at room temperature for 5 minutes, and then centrifuged at 16,000×g for 5 minutes to separate the soluble from polymerized α-tubulin. The supernatant and pellet fractions were resolved on 10-20% pre-cast tris-glycine gels (Novex, San Diego, Calif.) and then subjected to immune blotting with a specific anti-α-tubulin antibody. […]

CLL cells [5] = assay: α-tubulin polymerization assay in CLL cells; format: cell-based, human; details: paclitaxel
Procedure: Lymphocyte Cultures. The Institutional Review Board of the University of California, San Diego approved this study, and all patients gave informed written consent to participation. Subjects had CLL according to National Cancer Institute (NCI) criteria of any Rai stage. None of the patients were in active chemotherapeutic treatments. Flow cytometric analysis determined that all specimens contained more than 90% CD5+CD19+B cells.
as §1, §2
α-tubulin Polymerization Assay. For each data point, 2×10^6 of cells were incubated in 2 ml of regular medium containing drugs for various periods of time. The cells were then washed twice at room temperature, and resuspended in 50 μl of α-tubulin extraction buffer (1 mM MgC2, 2 m MEGTA, 0.5% NP-40, 20 mM Tris-HCl, pH=6.8) supplemented with 2 mM phenylmethysulfonyl fluoride, and a protease inhibitor cocktail (Sigma). […]

[6] = system: normal PBL (peripheral blood mononuclear cells); assay: α-tubulin polymerization assay in normal PBL (soluble vs particulate fraction, immunoblot); format: cell-based, human; details: normal resting PBL, paclitaxel for one hour
Procedure: as §1, §2, §3

[7] = A549, 48 h, A549, without mizoribine base, 48 hours L-alanosine
[8] = A549, A549, 24 hours pre-treatment with 10 micromolar mizoribine base
[9] = A549, A549, 24 hours pre-treatment with 25 micromolar mizoribine base
[10] = A549, A549, 24 hours pre-treatment with 50 micromolar mizoribine base

Structure (SMILES): N[C@@H](CN(O)N=O)C(=O)O [L-alanosine]
IC50 [1, 7]: 0.5 µM
IC90 [1, 7]: 20 µM
IC50 [1, 8]: 0.5 µM
IC90 [1, 8]: 9 µM
IC50 [1, 9]: 0.25 µM
IC90 [1, 9]: 6 µM
IC50 [1, 10]: 0.15 µM
IC90 [1, 10]: 4 µM

Structure (SMILES): COc1cc2c(c(N)c1OC)C(=O)/C(=C\c1cc(C)c(O)c(C)c1)C2 [indanocine]
viability at 1 µM (CLL cells [2]): 24%

IC50 ([3]; K562, 48 hours of incubation): ~100 µM
IC50 ([3]; K562, 72 hours of incubation): ~10 µM
Structure (SMILES): NC(=O)c1[nH]cnc1O [mizoribine base, mizoribine aglycone]

IC50 ([3]; Homo sapiens, K562, 48 hours of incubation): ~100 µM
IC50 ([3]; Homo sapiens, K562, 72 hours of incubation): ~10 µM
Structure (SMILES): NC(=O)c1ncn([C@@H]2O[C@H](CO)[C@@H](O)[C@H]2O)c1O [mizoribine]
plasma half life [4]: a few hours
viability at 1 µM (CLL cells [2]): 55%
viability at 10 µM (CLL cells [2]): 45%

Structure (SMILES): CC(=O)O[C@H]1C(=O)[C@@]2(C)[C@H]([C@H](OC(=O)c3ccccc3)[C@]3(O)C[C@H](OC(=O)[C@H](O)[C@@H](NC(=O)c4ccccc4)c4ccccc4)C(C)=C1C3(C)C)[C@]1(OC(C)=O)CO[C@@H]1C[C@@H]2O [paclitaxel]
α-tubulin in the particulate fraction after treatment (activated PBL): most of the α-tubulin shifted to the particulate fraction; also recorded: a shift of α-tubulin to the particulate-bound fraction
α-tubulin in the particulate fraction after treatment (CLL cells [5]): nearly complete relocalization of α-tubulin to the particulate fraction
α-tubulin in the particulate fraction after treatment [6]: only a minimal increase of α-tubulin in the particulate fraction; also recorded: did not change this pattern
